Where two headings read alike, the source gives them in different places.
Key:
HEK293 GFP Parkin cells = assay: Immunoblotting of mitochondrial protein degradation after CCCP; format: cell-based
Procedure: (a) HEK293 GFP Parkin cells were treated with varying doses of SR3677 for 2 hours prior to induction of mitophagy with 10 μM CCCP for one hour. The percentage of cells with mitochondrial Parkin increased in a dose-dependent manner. […] Cell lysates were harvested, proteins were separated by SDS-PAGE and immunoblotting was performed with anti-Mfn2 and anti-actin antibodies. (c) Ponceau VDAC1 levels in each sample normalized to Ponceau staining. (d) Mfn2/actin levels in CCCP treated cells. (e) Densitometry analysis was performed to quantify Mfn2 and VDAC1 levels in each sample (n=4 independent experiments).
HEK293 GFP Parkin cells co-treated with 0.5 μM SR3677 or DMSO and 10 μM CCCP for the indicated time (hours). Cell lysates were separated by SDS-PAGE and immunoblotting was performed to assess turnover of IMM/matrix substrates (A) ATP5A, (B) UQCRC2 and (C) COXIV. Densitometry analysis was performed. Protein levels were normalized to Ponceau. Data is expressed as mean±s.e.m (n=6, 7 and 8 for a, b and c, respectively. 4) P-values were determined by paired student's t-test, *P<0.05.
Lysates were harvested using lysis buffer (0.1M Tris HCl, 0.01% SDS, pH 9) with 1× protease inhibitor cocktail (BioShop, PIC002.1). Lysates were then heated at 95° C. for 20 minutes with vortexing performed at 5-minute intervals. The BCA assay (Pierce, 23227) was performed to determine protein concentration, to standardize protein loading across samples to be compared. 12% SDS-PAGE gels were used to run samples to be analyzed for LC3 conversation and for Tom20 and 10% gels were run for all other samples. Transfer of proteins onto PVDF membrane (Immobilon, IPVH00010) was performed at 110V for 80 minutes or at 36V for 8 hours. Membranes were blocked with 5% skim milk in TBST (1×TBS, 0.1% Tween-20 [BioShop, 1M23298]) for 30 minutes prior to incubation in primary antibodies at a dilution of 1:1000 for all antibodies except anti-ROCK2 and anti-LC3, which were used at a dilution of 1:5000. Visualization of proteins was performed using ECL (BioRad, 11705062).
Densitometry was performed by normalizing bands corresponding to the protein of interest to a loading control such as actin using ImageLab 6.0 software (BioRad).

SH-SY5Y cells = assay: Cell viability by crystal violet staining; format: cell-based; settings: 0.5 μM pre-treatment, 10 μM CCCP 24 hours
Procedure: A) SH-SY5Y cells were pre-treated with either DMSO or 0.5 μM SR3677 prior to addition of either DMSO or 10 μM CCCP for 24 hours. Following treatment, cells were washed, fixed with 4% paraformaldehyde and stained with crystal violet dye. B) The OD at 550 nm was measured to assess crystal violet staining.
To determine whether these findings could be translated into dopaminergic neurons, the study was continued in the dopaminergic neuroblastoma SH-SY5Y cell line. Parkin undergoes a similar CCCP-dependent subcellular transition from cytosol to mitochondria in these cells^12. First, whether the viability of these cells would be improved by SR3677 was investigated. Initially, experiments were conducted using crystal violet staining as an indicator of cell viability. […] Next, SH-SY5Y cells were differentiated into a more neuron-like population according to protocols previously described^10 and ATP levels were measured. […] Varying concentrations of SR3677 were co-administered alongside the PD-causing toxin paraquat.

[1] = test system: differentiated SH-SY5Y cells; assay: Cell viability determination (ATP levels normalized to protein); format: cell-based; settings: 24 hours
Procedure: SH-SY5Y cells were differentiated according to previously established protocol consisting of sequential treatment with retinoic acid followed by brain-derived neurotrophic factor^10. Cells were then seeded into white 96-well plates with white bottom and allowed to adhere overnight. Varying doses of SR3677 were combined with 500 μM paraquat and administered for 24 hours. Controls treated with 0.5 μM SR3677, equivalent volume DMSO and paraquat alone were also included. Following 24-hour incubation, cell media was aspirated and THE lysis buffer (50 mM Tris-HCl, 100 mM NaCl, 0.1 mM EDTA) containing protease inhibitor cocktail was added to each well. Half of the lysate volume was removed and aliquoted into a separate 96-well plate. ATP levels were measured in the opaque plate using the ATP determination (ThermoFisher A22066) assay kit and protein concentrations were measured using the Pierce BCA (ThermoFisher #23225) assay kit. ATP levels were normalized to protein concentration and then by the ratio for cells treated with paraquat alone in a control well on each plate.

Drosophila = format: in vivo
Procedure: Fresh vials containing standard fly food supplemented with the indicated treatments were changed out every 2 days. The number of flies surviving each day was counted and log-rank tests were performed to determine statistical significance. 20 flies per treatment, n=5 (c) The climbing ability of flies treated as described in (a and bin) was assessed 4 days following initial administration of treatments. The number of flies to climb beyond 9.5 cm every 10 seconds was assessed. The percentage of flies in each treatment to cross this line was determined. The climbing ability of each treatment was normalized to the control group treated with water only. 20 flies per treatment, n=5. (d) The climbing ability of UAS-park^RNAi and ddc-GAL4>UAS-park^RNAi flies fed either paraquat or paraquat in combination with SR3677. 20 flies per treatment, n=7. (e) Proteins lysates from UAS-park^RNAi or tubulin>UAS-park^RNAi whole flies were separated by SDS-PAGE. Immunoblotting with anti-Parkin and anti-actin antibody was performed. (f) The climbing ability of TH-GAL flies fed either paraquat or paraquat in combination with SR3677. (g) Survival of heteroplasmic mt:Coll^T300l flies fed fly food supplemented with water or 2 mM SR3677 and wild-type Canton(S) flies (n=3 independent experiments). (h) The climbing ability of heteroplasmic mt:Coll^T300l flies fed either water or 2 mM SR3677 for 7 days. Log-rank tests were performed to determine p-values for survival analyses (a, b, g), *P<0.05. P-values were determined by one-tailed paired student's t-test for all climbing assays (c-e, h), *P<0.05. Data is expressed as mean±s.e.m. All error bars represent s.e.m
Male Canton(S) Drosophila were aged 7 days prior to feeding with standard fly food supplemented with water, 10 mM paraquat, 1 mM SR3677, or with combinations of these chemicals. Flies were placed into new vials containing fresh food supplemented with the treatments previously administered and 2 days later, climbing assays were performed. Flies were placed into plastic cylinder vials and tapped down, so all flies fell to the bottom. The number of flies to climb beyond 12.5 cm was counted every 10 s and values are represented as the percentage of total flies in each treatment group.

[2] = 0.5 μM co-treated with 10 μM CCCP

CN(C)CCOc1cc(-c2cn[nH]c2)ccc1NC(=O)[C@@H]1COc2ccccc2O1 [SR3677] was tested, and the “degradation of ATP5A” value (HEK293 GFP Parkin cells; [2]) was “increased the degradation”, the “degradation of COXIV” value (HEK293 GFP Parkin cells; [2]) was “increased the degradation” and the “degradation of UQCRC2” value (HEK293 GFP Parkin cells; [2]) was “enhanced”. For the same compound, the “fold lower concentration than Y39983 for comparable Mfn2 degradation” value (HEK293 GFP Parkin cells; 0.5 μM vs 10 μM) was 20 fold, the “turnover of VDAC1” value (HEK293 GFP Parkin cells; 0.5 μM, 10 μM CCCP) was “increased the turnover” and the “concentration administered to enhance Mfn2 degradation” value (HEK293 GFP Parkin cells; 10 μM CCCP) was 0.5 µM. The “Mfn2 degradation following CCCP” value (HEK293 GFP Parkin cells; 2 h pre-treatment, 10 μM CCCP, Y39983 10 μM, SR3677 0.5 μM) was “Increased degradation of Mfn2”, the “crystal violet staining (OD)” value (SH-SY5Y cells) was “increased crystal violet” and the “cell viability, compound alone” value ([1]; 0.5 μM) was “did not affect cell viability”. For the same compound, the “viability of cells challenged with paraquat” value ([1]; varying concentrations with 500 μM paraquat) was “improved the viability of cells challenged with paraquat in a dose-dependent manner”, the “climbing ability of paraquat-treated flies” value (Drosophila; Canton(S), 1 mM SR3677 with 10 mM paraquat) was “restores climbing ability” and the “climbing ability with paraquat” value (Drosophila; TH-GAL4, UAS-rok^RNAi flies) was “No further improvement to climbing ability”. The “climbing ability with paraquat” value (Drosophila; UAS-park^RNAi flies) was “improved” and the paraquat-induced climbing defects (Drosophila; ddc-GAL4>UAS-park^RNAi flies) was “no improvement”.

From patent US20220074923A1, “METHODS OF IDENTIFYING PARKIN-MEDIATED MITOPHAGY ACTIVATING AGENTS” (THE GOVERNING COUNCIL OF THE UNIVERSITY OF TORONTO, priority 2018, published 2022)
